In patent US12297190B2, “Modulators of STING (stimulator of interferon genes)” (PFIZER INC., priority 2019, dated 2025) one finds EC50 and Ki data, which are given here for 20 compounds.

Usually EC50 stands for the concentration needed to bring the measured effect to its halfway point. Broadly, the Ki is a dissociation constant, usually derived from enzyme kinetics or from competition with a known ligand.

The target in test [1] is T1, STING (Homo sapiens, UniProt Q86WV6, G230A/H232R/R293Q/R71H).
T1 construct: host or cells: THP-1 and THP-1 Lucia ISG cells
T1 sequence (Q86WV6 whole entry R71H/G230A/H232R/R293Q): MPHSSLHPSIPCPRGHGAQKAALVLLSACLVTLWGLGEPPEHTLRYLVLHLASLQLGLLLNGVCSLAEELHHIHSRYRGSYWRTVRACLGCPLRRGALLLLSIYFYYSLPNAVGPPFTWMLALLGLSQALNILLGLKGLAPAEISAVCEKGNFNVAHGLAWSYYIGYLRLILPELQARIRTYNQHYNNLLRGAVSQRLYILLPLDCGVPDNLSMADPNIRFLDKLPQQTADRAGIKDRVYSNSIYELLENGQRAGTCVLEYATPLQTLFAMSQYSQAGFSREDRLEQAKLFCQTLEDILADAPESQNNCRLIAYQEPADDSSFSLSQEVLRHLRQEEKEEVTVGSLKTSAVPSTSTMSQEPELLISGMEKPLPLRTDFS
The test is described as follows: Phosphorylation of IRF3: THP-1 cell ELISA. To be noted: THP-1 cells, 3 hours incubation, phospho-IRF3 ELISA; read-out: THP-1 CELL P-IRF3 EC50. It counts as cell-based. How it is done:
Phosphorylation of IRF3: THP-1 Cell ELISA
STING activation results in recruitment of TBK1 and phosphorylation of IRF3 transcription factor before induction of type I interferons. THP-1 cells (InvivoGen) were grown in RPMI media plus 2 mM L-glutamine, 10% fetal bovine serum, and 0.5% Pen-Strep. 10^4 cells were seeded in 96-well plates and incubated overnight 37° C., 5% CO2. Compounds serial diluted compounds in media (final 0.5% DMSO) were added to the cells and incubated for an additional 3 hours. After incubation, the plates were centrifuged at 2000 rpm for 5 min. The cells were then lysed in 100 μl RIPA buffer and vortexed for 30 minutes at room temperature. 25 μl of lysate was then transferred to clear polystyrene High Bind plates that had been previously coated with mouse anti-human IRF-3 capture antibody (BD Pharmigen), and allowed to incubate at 4° C. for 16 hours. The plates were then washed and incubated with rabbit anti-phospho-IRF3 detection antibody (Cell Signaling Technologies) for 1.5 hours at room temperature. Finally, an HRP-linked secondary antibody (Cell Signaling Technologies) was added for 30 min before the Glo Substrate Reagent (R&D Systems) was used generate the luminescent signal. The signal was measured using a Perkin-Elmer Envision microplate reader. Data were normalized to “% effect” with a positive control STING agonist that was known to maximize the phosphorylated IRF3 signal and the negative control was DMSO.

Test [2] deals with T1, STING. Nature of the test: Interferon-β induction: THP-1 Lucia ISG reporter cell line. In kind it is cell-based. To be noted: THP-1 Lucia ISG cells, 24 hours incubation, luciferase reporter; read-out: THP-1 Lucia ISG Cells IFN-β EC50. How it is done: Interferon-β Induction: THP-1 ISG Reporter Cell Line
THP-1 Lucia™ ISG cells (InvivoGen) express the secreted luciferase “Lucia” reporter gene under the control of an IRF-inducible composite promotor comprised of five interferon response elements. THP-1 Lucia™ ISG cells were grown in RPMI media plus 2 mM L-glutamine, 10% fetal bovine serum, and 0.5% Pen-Strep. Hygromycin B and Zeocin were present to maintain stable transfection. 10^4 cells were seeded in 96-well plates and incubated overnight 37° C., 5% CO2. 50 μL of serial diluted compounds in media (final 0.5% DMSO) was and incubated for an additional 24 hours. After incubation, the plates were centrifuged at 2000 rpm for 10 min. 50 μl of cell culture supernatant of each well was transferred to a white, opaque 96-well plate. One pouch of QUANTI-Luc™ (InvivoGen) powder was prepared in 25 mL of endotoxin-free water and 100 μL of prepared warm QUANTI-Luc solution were added to each well containing the supernatant. The luminescence signal was measured using a Perkin-Elmer Envision microplate reader. Data were normalized to “% effect” with a positive control STING agonist that was known to maximize the luciferase signal and the negative control DMSO.
On the technique in general: Reporter assays use an easily measured gene product as a stand-in for the process of interest.

A further test concerns the target R232-STING (Homo sapiens, UniProt Q86WV6, H232R). Nature of the test: biochemical.

Where a name gives a salt, the structure may show the parent alone.

Sequence of R232-STING (Q86WV6 155-341 H232R): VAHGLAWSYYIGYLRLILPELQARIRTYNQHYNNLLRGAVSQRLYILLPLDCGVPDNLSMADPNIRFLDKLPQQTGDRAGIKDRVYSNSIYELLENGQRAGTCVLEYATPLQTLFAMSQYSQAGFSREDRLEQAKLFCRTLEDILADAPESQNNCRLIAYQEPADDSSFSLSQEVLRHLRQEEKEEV

In the case of `CCn1nc(C)cc1-c1nnc(-c2cc(C(N)=O)cc3c2cnn3CCCCC2CCNCC2)[nH]1` [YY15, 4-[5-(1-ethyl-3-methyl-1H-pyrazol-5-yl)-4H-1,2,4-triazol-3-yl]-1-[4-(piperidin-4-yl)butyl]-1H-indazole-6-carboxamide], the EC50 at STING [1] and on STING [2] was greater than 100000 nM each time. The compound also registered a Ki at R232-STING of 329 nM.
In the case of `CCn1nc(C)c(F)c1-c1n[nH]c(-c2nc(C(N)=O)cc3c2cnn3C)n1` [Example C08, 4-[3-(1-ethyl-4-fluoro-3-methyl-1H-pyrazol-5-yl)-1H-1,2,4-triazol-5-yl]-1-methyl-1H-pyrazolo[4,3-c]pyridine-6-carboxamide], the EC50 is 140 nM on STING [1] and 130 nM at STING [2]. The same compound displayed a Ki on R232-STING of 4.7 nM.
For `CCn1nc(C)cc1-c1n[nH]c(-c2nc(C(N)=O)cc3c2cnn3C)n1` [Example K01, 4-[3-(1-ethyl-3-methyl-1H-pyrazol-5-yl)-1H-1,2,4-triazol-5-yl]-1-methyl-1H-pyrazolo[4,3-c]pyridine-6-carboxamide] the same measures were 170 nM, 180 nM and 16 nM.
For `CCn1nc(C)cc1-c1n[nH]c(-c2cc(C(N)=O)cc3c2cnn3CCN(C)CC(F)(F)F)n1` [Example D05, 4-[3-(1-ethyl-3-methyl-1H-pyrazol-5-yl)-1H-1,2,4-triazol-5-yl]-1-{2-[methyl(2,2,2-trifluoroethyl)amino]ethyl}-1H-indazole-6-carboxamide formic acid salt] the same measures were 20200 nM, 19900 nM and 232 nM.
On the same counts, the results for `Cc1nn(CCC(=O)O)c(-c2n[nH]c(-c3nc(C(N)=O)cc4c3cnn4C)n2)c1O` [YY32, 3-{5-[5-(6-carbamoyl-1-methyl-1H-pyrazolo[4,3-c]pyridin-4-yl)-1H-1,2,4-triazol-3-yl]-4-hydroxy-3-methyl-1H-pyrazol-1-yl}propanoic acid] are greater than 11100 nM, greater than 10000 nM and 7.2 nM.
Consider `CCn1nc(C)cc1-c1nnc(-c2cc(C(N)=O)cc3c2cnn3C2CC3(CCNC3)C2)[nH]1` (stereo not drawn) [YY17, 1-(6-azaspiro[3.4]octan-2-yl)-4-[5-(1-ethyl-3-methyl-1H-pyrazol-5-yl)-4H-1,2,4-triazol-3-yl]-1H-indazole-6-carboxamide], for which the concentration for a half-maximal effect (EC50) at STING [1] and at STING [2] was greater than 100000 nM each time. The compound also came in with a Ki on R232-STING of 376 nM.
`Cc1cc(-c2n[nH]c(-c3cc(C(N)=O)cc4c3cnn4C)n2)n(CCC(=O)O)n1` [Example C03, 3-{5-[5-(6-carbamoyl-1-methyl-1H-indazol-4-yl)-1H-1,2,4-triazol-3-yl]-3-methyl-1H-pyrazol-1-yl}propanoic acid]: the half-maximal effective concentration (EC50) at STING [1] was determined as 10900 nM; on STING [2], 8930 nM. This compound also displayed a Ki at R232-STING of 8.1 nM.
For `CCn1nc(C)cc1-c1nnc(-c2cc(C(N)=O)cc3c2cnn3[C@H](C)CN2CCOCC2)[nH]1` [YY07, 4-[5-(1-ethyl-3-methyl-1H-pyrazol-5-yl)-4H-1,2,4-triazol-3-yl]-1-[(2R)-1-(morpholin-4-yl)propan-2-yl]-1H-indazole-6-carboxamide] the same measures were greater than 100000 nM, greater than 100000 nM and 337 nM.
For `Cc1cc(-c2n[nH]c(-c3c(F)c(C(N)=O)cc4c3cnn4C)n2)n(CCC(=O)O)n1` [YY21, 3-{5-[5-(6-carbamoyl-5-fluoro-1-methyl-1H-indazol-4-yl)-1H-1,2,4-triazol-3-yl]-3-methyl-1H-pyrazol-1-yl}propanoic acid] the same measures were greater than 100000 nM, greater than 100000 nM and greater than 891 nM.
`CCn1nc(C)cc1-c1n[nH]c(-c2cc(C(N)=O)cc3c2cnn3CCN2CCOC(C)C2)n1` (stereo not drawn) [YY22, 4-[3-(1-ethyl-3-methyl-1H-pyrazol-5-yl)-1H-1,2,4-triazol-5-yl]-1-[2-(2-methylmorpholin-4-yl)ethyl]-1H-indazole-6-carboxamide]: the EC50 on STING [1] and on STING [2] was greater than 33300 nM throughout. At R232-STING, this compound yielded a Ki of 491 nM.
For the compound `CCn1nc(CO)cc1-c1n[nH]c(-c2nc(C(N)=O)cc3c2cnn3C)n1` [YY30, 4-{3-[1-ethyl-3-(hydroxymethyl)-1H-pyrazol-5-yl]-1H-1,2,4-triazol-5-yl}-1-methyl-1H-pyrazolo[4,3-c]pyridine-6-carboxamide], the EC50 at STING [1] is greater than 13300 nM; at STING [2], greater than 33300 nM. On R232-STING, the affinity, expressed as Ki, was 41.6 nM.
Take `CCn1nc(C)c(F)c1-c1nc(-c2cc(C(N)=O)cc3c2cnn3CCCN2CCOCC2)n[nH]1` [Example C06, 4-[5-(1-ethyl-4-fluoro-3-methyl-1H-pyrazol-5-yl)-1H-1,2,4-triazol-3-yl]-1-[3-(morpholin-4-yl)propyl]-1H-indazole-6-carboxamide]: the EC50 at STING [1] came out at 96700 nM; on STING [2], 92800 nM. This compound returned a Ki on R232-STING of 277 nM.
For `CCn1nc(C)cc1-c1n[nH]c(-c2cc(C(N)=O)cc3c2cnn3CCN2CCS(=O)(=O)CC2)n1` [YY27, 1-[2-(1,1-dioxo-1lambda~6~-thiomorpholin-4-yl)ethyl]-4-[3-(1-ethyl-3-methyl-1H-pyrazol-5-yl)-1H-1,2,4-triazol-5-yl]-1H-indazole-6-carboxamide] the same measures were greater than 33300 nM, greater than 33300 nM and 490 nM.
On the same counts, the results for `CCn1nc(C)c(F)c1-c1nc(-c2nc(C(N)=O)cc3c2cnn3CC(CO)CO)n(C)n1` [Example Y01, 4-[3-(1-ethyl-4-fluoro-3-methyl-1H-pyrazol-5-yl)-1-methyl-1H-1,2,4-triazol-5-yl]-1-[3-hydroxy-2-(hydroxymethyl)propyl]-1H-pyrazolo[4,3-c]pyridine-6-carboxamide] are 7100 nM, 7340 nM and 27.2 nM.
On the same counts, the results for `CCn1nc(C)cc1-c1nnc(-c2cc(C(N)=O)cc3c2cnn3C2CC3CNCC3C2)[nH]1` (stereo not drawn) [YY13, 4-[5-(1-ethyl-3-methyl-1H-pyrazol-5-yl)-4H-1,2,4-triazol-3-yl]-1-(octahydrocyclopenta[c]pyrrol-5-yl)-1H-indazole-6-carboxamide] are greater than 100000 nM, greater than 100000 nM and 431 nM.
Take `CCn1nc(C)cc1-c1n[nH]c(-c2cc(C(N)=O)cc3c2cnn3CCN2CCOC3(CCCC3)C2)n1` [YY28, 4-[3-(1-ethyl-3-methyl-1H-pyrazol-5-yl)-1H-1,2,4-triazol-5-yl]-1-[2-(6-oxa-9-azaspiro[4.5]decan-9-yl)ethyl]-1H-indazole-6-carboxamide]: the EC50 at STING [1] and at STING [2] was greater than 33300 nM each time. This compound also returned a Ki on R232-STING of 142 nM.
For `CCn1cc(C)c(O)c1-c1nc(-c2nc(C(N)=O)cc3c2cnn3C)cs1` [Example AG01, 4-[2-(1-ethyl-3-hydroxy-4-methyl-1H-pyrrol-2-yl)-1,3-thiazol-4-yl]-1-methyl-1H-pyrazolo[4,3-c]pyridine-6-carboxamide], the EC50 was determined as 240 nM on STING [1] and 340 nM at STING [2]. The compound also returned a Ki on R232-STING of 8.3 nM.
For `Cc1cc(-c2nc(-c3nc(C(N)=O)cc4c3cnn4C)c(CN)o2)n(CCCO)n1` [Example U04] the same measures were 1990 nM, 1850 nM and 34.4 nM.
Turning to `CCn1nc(C)c(F)c1-c1nc(-c2cc(C(N)=O)cn3c(C)ncc23)n[nH]1` [Example F01, 8-[5-(1-ethyl-4-fluoro-3-methyl-1H-pyrazol-5-yl)-1H-1,2,4-triazol-3-yl]-3-methylimidazo[1,5-a]pyridine-6-carboxamide], the EC50 on STING [1] is 770 nM; at STING [2], 680 nM. On R232-STING, this compound came in with a Ki of 92.7 nM.
On to `CCn1nc(C)cc1-c1n[nH]c(-c2cc(C(N)=O)cc3c(C)n[nH]c23)n1` [Example L01, 7-[3-(1-ethyl-3-methyl-1H-pyrazol-5-yl)-1H-1,2,4-triazol-5-yl]-3-methyl-1H-indazole-5-carboxamide], for which the EC50 on STING [1] was 3090 nM; on STING [2], 3250 nM. This compound yielded a Ki on R232-STING of 66.2 nM.
